From patent US11286281B2, “Homodetic cyclic peptides targeting alpha-4-beta-7 integrin” (priority 2017, dated 2022)
Numbered stars: 1 amine (or outer) side, 2 acyl side, 3 side chain; on linkers, the order of the positions; unused ones are H or OH. Square brackets hold non-standard residues; d marks the D form. Peptide text beside a SMILES is read from it. X1 = O=C(c1ccc(-c2ccc(N3CCNCC3)cc2)c(CN[*:1])c1)[*:2]

Biological target: T1, integrin α4β7 (Mus musculus, UniProt P26011+Q00651)
T1 construct: host or cells: TK-1 mouse T-cell lymphoma cells
T1 sequence (Q00651 41-1039): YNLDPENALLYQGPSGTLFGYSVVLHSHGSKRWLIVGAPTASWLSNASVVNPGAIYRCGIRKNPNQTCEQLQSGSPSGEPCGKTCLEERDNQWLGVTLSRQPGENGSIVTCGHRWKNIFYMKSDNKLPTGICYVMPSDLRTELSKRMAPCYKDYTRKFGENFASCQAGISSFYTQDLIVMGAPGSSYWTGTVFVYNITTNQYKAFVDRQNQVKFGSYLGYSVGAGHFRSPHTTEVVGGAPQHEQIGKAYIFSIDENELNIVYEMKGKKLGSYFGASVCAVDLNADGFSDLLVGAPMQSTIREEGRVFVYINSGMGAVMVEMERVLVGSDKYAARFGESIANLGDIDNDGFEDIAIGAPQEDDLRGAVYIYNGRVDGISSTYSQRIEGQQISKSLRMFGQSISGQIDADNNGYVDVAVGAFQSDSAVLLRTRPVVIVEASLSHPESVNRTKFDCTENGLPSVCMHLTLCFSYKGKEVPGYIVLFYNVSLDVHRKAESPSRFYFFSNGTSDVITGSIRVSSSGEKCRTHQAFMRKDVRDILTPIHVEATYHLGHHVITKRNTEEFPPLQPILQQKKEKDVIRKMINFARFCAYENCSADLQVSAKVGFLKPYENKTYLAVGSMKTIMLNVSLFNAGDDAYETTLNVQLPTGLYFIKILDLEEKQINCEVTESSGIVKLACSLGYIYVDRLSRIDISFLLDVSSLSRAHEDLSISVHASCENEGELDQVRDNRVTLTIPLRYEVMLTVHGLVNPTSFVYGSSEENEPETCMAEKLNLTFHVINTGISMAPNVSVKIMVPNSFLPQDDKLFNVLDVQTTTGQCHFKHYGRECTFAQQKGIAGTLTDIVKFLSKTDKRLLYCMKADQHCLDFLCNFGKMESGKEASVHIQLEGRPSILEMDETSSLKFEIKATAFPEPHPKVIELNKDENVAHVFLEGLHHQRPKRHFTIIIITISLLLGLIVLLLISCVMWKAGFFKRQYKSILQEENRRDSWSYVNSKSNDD
T1 sequence (P26011 20-806): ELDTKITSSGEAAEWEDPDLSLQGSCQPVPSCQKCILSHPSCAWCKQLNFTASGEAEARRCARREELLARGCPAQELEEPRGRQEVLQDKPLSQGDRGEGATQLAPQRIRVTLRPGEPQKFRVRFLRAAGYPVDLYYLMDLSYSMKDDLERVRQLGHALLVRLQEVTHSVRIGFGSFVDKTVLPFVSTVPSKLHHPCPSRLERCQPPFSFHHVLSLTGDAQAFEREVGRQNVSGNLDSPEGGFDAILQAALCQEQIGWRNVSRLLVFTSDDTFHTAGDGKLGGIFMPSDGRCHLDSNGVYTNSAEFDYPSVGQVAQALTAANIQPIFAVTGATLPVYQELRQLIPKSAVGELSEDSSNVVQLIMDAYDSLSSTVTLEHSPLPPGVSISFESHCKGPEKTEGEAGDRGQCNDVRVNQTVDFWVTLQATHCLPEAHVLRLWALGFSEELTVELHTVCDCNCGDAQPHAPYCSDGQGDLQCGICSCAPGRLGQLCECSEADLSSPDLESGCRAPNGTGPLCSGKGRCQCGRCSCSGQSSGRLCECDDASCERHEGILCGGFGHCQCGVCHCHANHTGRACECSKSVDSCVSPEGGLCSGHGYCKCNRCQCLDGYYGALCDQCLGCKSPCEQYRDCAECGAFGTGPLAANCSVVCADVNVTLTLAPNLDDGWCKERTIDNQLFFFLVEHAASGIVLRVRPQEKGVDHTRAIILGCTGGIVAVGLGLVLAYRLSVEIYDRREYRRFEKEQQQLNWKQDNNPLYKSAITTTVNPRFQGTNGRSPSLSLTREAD
Test: Integrin α4β7-MAdCAM mouse cell adhesion assay (TK-1 cells)
Format: cell-based
Conditions: for IC50: TK-1 cells, read-out: IC50 in mouse α4β7-containing cell adhesion
Procedure: TK-1 mouse T-cells lymphoma cell lines (ATCC CRL2396) were cultured in RPMI 1640 medium (HyClone SH30027.1) supplemented with 10% FBS (Seradigm) and 1% Penicillin-Streptomycin. A 96-well plate (Costar, 3603) was coated with 100 μl/well of recombinant mouse MAdCAM-1 Fc Chimera (R&D Systems, 993-MC-050) solution at 0.25 μg/ml in coating buffer (50 mM sodium carbonate, pH 9.6). The plate was incubated overnight at 4° C. and washed twice with 150 μl per well wash buffer (0.05% Tween 20 in PBS), blocked with 250 μl per well blocking buffer (1% non-fat dry milk in PBS), and incubated for 2 hours at room temperature. TK-1 cells were resuspended at 10 million cells/ml in PBS containing […] and incubated at 37° C. for 30 min in a 50 ml tube. […] The plate was emptied by inverting and blotting on paper towels and washed manually twice with PBS. 100 μl PBS was then added to each well. The fluorescence was read (Ex495/Em515) using a plate reader (Tecan Infinite 1000). To calculate the dose response, the fluorescence value of control wells not containing cells was subtracted from each test well.

Compound	fold difference in IC50 between mouse α4β7-containing and human α4β7-containing cell adhesion (TK-1 versus RPMI8866, weaker in mouse) [fold]	IC50 [nM]
CC(C)C[C@@H]1NC(=O)c2ccc(-c3ccc(N4CCNCC4)cc3)c(c2)CNC(=O)[C@@H]2CCCN2C(=O)[C@H](C)NC(=O)[C@H]([C@@H](C)O)NC(=O)[C@H](CC(=O)O)NC1=O [Compound 8] (cyclo(P[X1]LDTA))	~10	–
CC(C)C[C@@H]1NC(=O)c2ccc(-c3ccc(N4CCN(C(=O)COCC(=O)N5CCN(c6ccc(-c7ccc8cc7CNC(=O)[C@@H]7CCCN7C(=O)[C@H](C)NC(=O)[C@H]([C@@H](C)O)NC(=O)[C@H](CC(=O)O)NC(=O)[C@H](CC(C)C)NC8=O)cc6)CC5)CC4)cc3)c(c2)CNC(=O)[C@@H]2CCCN2C(=O)[C@H](C)NC(=O)[C@H]([C@@H](C)O)NC(=O)[C@H](CC(=O)O)NC1=O [Compound 17]	–	~97
CC(C)C[C@@H]1NC(=O)c2ccc(-c3ccc(N4CCN(Cc5cccc(CN6CCN(c7ccc(-c8ccc9cc8CNC(=O)[C@@H]8CCCN8C(=O)[C@H](C)NC(=O)[C@H]([C@@H](C)O)NC(=O)[C@H](CC(=O)O)NC(=O)[C@H](CC(C)C)NC9=O)cc7)CC6)c5)CC4)cc3)c(c2)CNC(=O)[C@@H]2CCCN2C(=O)[C@H](C)NC(=O)[C@H]([C@@H](C)O)NC(=O)[C@H](CC(=O)O)NC1=O [Compound 18]	–	~68
